Columns and labels:
Assay type in all cases: cell-based
HL-60 = assay: Cytotoxicity MTS, leukemias/lymphomas, HL-60; conditions: read-out: Cytotoxicity IC50 AML (acute promyelocytic leukemia) HL-60, 4-Parameter Curve Fit, NA = not active, read-out: Cytotoxicity IC50 ALL (Promyelocytic leukemia) HL-60
K562 = assay: Cytotoxicity MTS, leukemias/lymphomas, K562; conditions: 4-Parameter Curve Fit, NA = not active, read-out: Cytotoxicity IC50 CML (Chronic myelogenous) K562
ARH-77 = assay: Cytotoxicity MTS, leukemias/lymphomas, ARH-77; conditions: 4-Parameter Curve Fit, NA = not active, read-out: Cytotoxicity IC50 Leukemia (Plasma cell) ARH-77
H9 = assay: Cytotoxicity MTS, leukemias/lymphomas, H9; conditions: 4-Parameter Curve Fit, NA = not active, read-out: Cytotoxicity IC50 Lymphoma (T cell) H9
Hut 78 = assay: Cytotoxicity MTS, leukemias/lymphomas, Hut 78; conditions: 4-Parameter Curve Fit, NA = not active, read-out: Cytotoxicity IC50 Lymphoma (Cutaneous T cell) Hut 78
RAMOS = assay: Cytotoxicity MTS, leukemias/lymphomas, RAMOS; conditions: 4-Parameter Curve Fit, NA = not active, read-out: Cytotoxicity IC50 Lymphoma (Burkitts B cell) RAMOS
U-937 = assay: Cytotoxicity MTS, leukemias/lymphomas, U-937; conditions: 4-Parameter Curve Fit, NA = not active, read-out: Cytotoxicity IC50 Lymphoma (Histiocytic) U-937
P3HR1 = assay: Cytotoxicity MTS, leukemias/lymphomas, P3HR1; conditions: 4-Parameter Curve Fit, NA = not active, read-out: Cytotoxicity IC50 Lymphoma (Burkitts ascites) P3HR1
MX-1 = assay: Cytotoxicity MTS, solid tumors, Breast MX-1; conditions: 4-Parameter Curve Fit, NA = not active
HT-29 = assay: Cytotoxicity MTS, solid tumors, Colon HT-29; conditions: 4-Parameter Curve Fit, NA = not active
Hs746t = assay: Cytotoxicity MTS, solid tumors, Gastric Hs746t; conditions: 4-Parameter Curve Fit, NA = not active
SK-HEP-1 = assay: Cytotoxicity MTS, solid tumors, Liver SK-HEP-1; conditions: 4-Parameter Curve Fit, NA = not active
A549 = assay: Cytotoxicity MTS, solid tumors, NSCL A549; conditions: 4-Parameter Curve Fit, NA = not active
SK-OV-3 = assay: Cytotoxicity MTS, solid tumors, Ovary SK-OV-3; conditions: 4-Parameter Curve Fit, NA = not active
FADU = assay: Cytotoxicity MTS, solid tumors, Pharynx FADU; conditions: 4-Parameter Curve Fit, NA = not active
786-O = assay: Cytotoxicity MTS, solid tumors, Renal 786-O; conditions: 4-Parameter Curve Fit, NA = not active

Compound	IC50 (HL-60) [nM]	IC50 (K562) [nM]	IC50 (ARH-77) [nM]	IC50 (H9) [nM]	IC50 (Hut 78) [nM]	IC50 (RAMOS) [nM]	IC50 (U-937) [nM]	IC50 (P3HR1) [nM]	IC50 (MX-1) [nM]	IC50 (HT-29) [nM]	IC50 (Hs746t) [nM]	IC50 (SK-HEP-1) [nM]	IC50 (A549) [nM]	IC50 (SK-OV-3) [nM]	IC50 (FADU) [nM]	IC50 (786-O) [nM]
CCCCCCCCCCCCCCCC(O)C(C)N (stereo not shown)	425	784	682	1550	2160	2140	981	3370	–	–	–	–	–	–	–	–
CCCCCCCCCCCCCCC[C@@H](O)[C@H](C)N [drawing 112]	–	–	–	–	–	–	–	–	1950	128	395	297	85.7	702	249	138

From patent US20040048834A1, “Antitumoral compounds” (priority 2000, published 2004)
